The values below come from patent US20110028710A1, “PROCESS FOR THE RECOVERY OF HCL FROM A DILUTE SOLUTION THEREOF AND EXTRACTANT COMPOSITION FOR USE THEREIN” (HCL CLEANTECH LTD., priority 2008, published 2011).

The conditions of data set [1]: analogous water-soluble acids of the prior-art strong acids; cited from earlier work.
Data set [2] can be described thus: pH of 1N NaCl solution after contact with the organic acid (indirect acid strength test). Particulars: 1 mol acid at 0.2 molar or higher in organic solvent contacted with equivalent NaCl in 1N aqueous solution.
Source text: The stronger the organic acid, the more the reaction moves in the right direction and the lower is the pH of the formed aqueous solution.

One may read the pKa as the pH at which an ionisable group is half protonated. As for `O=C(O)c1c(Cl)ccc(Cl)c1C(=O)O` [3,6-dichlorophtalic], the pKa in data set [1] was 1.46. Turning to `CCCCCCCCCCCC(=O)O` [Lauric, lauric acid], in data set [2], the “pH of the sodium chloride solution” value is reported as greater than 5.
